Experimental data: ChEMBL document CHEMBL5058649, “Data for DCP probe BAY 1816032” (2022); call rule not given here

Experiments:
[1] = target: Tyrosine-protein kinase BTK (Homo sapiens) (UniProt Q06187); assay: BTK DiscoveRx kinase panel; conditions: Compound concentration 1.0 uM
[2] = target: Phosphatidylinositol 3-kinase C2 domain-containing subunit gamma (Homo sapiens) (UniProt O75747); assay: PIK3C2G DiscoveRx kinase panel; conditions: Compound concentration 1.0 uM
[3] = target: cGMP-dependent protein kinase 1 (Homo sapiens) (UniProt Q13976); assay: PRKG1 DiscoveRx kinase panel; conditions: Compound concentration 1.0 uM
[4] = target: Cannabinoid receptor 1 (Homo sapiens) (UniProt P21554); conditions: Compound concentration 10.0 uM
[5] = target: Protein-tyrosine kinase 6 (Homo sapiens) (UniProt Q13882); assay: BRK DiscoveRx kinase panel; conditions: Compound concentration 1.0 uM
[6] = target: Ephrin type-B receptor 2 (Homo sapiens) (UniProt P29323); assay: EPHB2 DiscoveRx kinase panel; conditions: Compound concentration 1.0 uM
[7] = target: Serine/threonine-protein kinase Chk1 (Homo sapiens) (UniProt O14757); assay: CHEK1 DiscoveRx kinase panel; conditions: Compound concentration 1.0 uM
[8] = target: Receptor-interacting serine/threonine-protein kinase 2 (Homo sapiens) (UniProt O43353); assay: RIPK2 DiscoveRx kinase panel; conditions: Compound concentration 1.0 uM
HeLa = assay: HeLa cell line Proliferation assay; type: functional, Homo sapiens; conditions: time 4 day
[9] = target: Muscarinic acetylcholine receptor M3 (Homo sapiens) (UniProt P20309); conditions: Compound concentration 10.0 uM
[10] = target: D(2) dopamine receptor (Homo sapiens) (UniProt P14416); conditions: Compound concentration 10.0 uM
[11] = target: Sigma intracellular receptor 2 (Homo sapiens, UniProt Q5BJF2); conditions: Compound concentration 10.0 uM
[12] = target: Ephrin type-B receptor 3 (Homo sapiens) (UniProt P54753); assay: EPHB3 DiscoveRx kinase panel; conditions: Compound concentration 1.0 uM
[13] = target: Myotonin-protein kinase (Homo sapiens) (UniProt Q09013); assay: DMPK DiscoveRx kinase panel; conditions: Compound concentration 1.0 uM
[14] = target: Phosphorylase b kinase gamma catalytic chain, skeletal muscle/heart isoform (Homo sapiens) (UniProt Q16816); assay: PHKG1 DiscoveRx kinase panel; conditions: Compound concentration 1.0 uM
[15] = target: SRSF protein kinase 1 (Homo sapiens) (UniProt Q96SB4); assay: SRPK1 DiscoveRx kinase panel; conditions: Compound concentration 1.0 uM
[16] = target: RAF proto-oncogene serine/threonine-protein kinase (Homo sapiens) (UniProt P04049); assay: RAF1 DiscoveRx kinase panel; conditions: Compound concentration 1.0 uM
[17] = target: Mitogen-activated protein kinase kinase kinase 5 (Homo sapiens) (UniProt Q99683); assay: ASK1 DiscoveRx kinase panel; conditions: Compound concentration 1.0 uM
[18] = target: Dual specificity tyrosine-phosphorylation-regulated kinase 2 (Homo sapiens) (UniProt Q92630); assay: DYRK2 DiscoveRx kinase panel; conditions: Compound concentration 1.0 uM
[19] = target: Phosphatidylinositol 3-kinase catalytic subunit type 3 (Homo sapiens) (UniProt Q8NEB9); assay: VPS34 DiscoveRx kinase panel; conditions: Compound concentration 1.0 uM
[20] = target: Rho-associated protein kinase 2 (Homo sapiens) (UniProt O75116); assay: ROCK2 DiscoveRx kinase panel; conditions: Compound concentration 1.0 uM
[21] = target: Activin receptor type-1B (Homo sapiens) (UniProt P36896); assay: ACVR1B DiscoveRx kinase panel; conditions: Compound concentration 1.0 uM
[22] = target: Inhibitor of nuclear factor kappa-B kinase subunit beta (Homo sapiens) (UniProt O14920); assay: IKK-beta DiscoveRx kinase panel; conditions: Compound concentration 1.0 uM
[23] = target: Prostaglandin G/H synthase 2 (Homo sapiens) (UniProt P35354); assay: Cyclooxygenase COX-2 Eurofins-Panlabs enzyme assay; set-up: substrate with concentration; conditions: Compound concentration 10.0 uM
[24] = target: 5-hydroxytryptamine receptor 5A (Homo sapiens) (UniProt P47898); conditions: Compound concentration 10.0 uM
HT1197 = assay: HT-1197 cell line Proliferation assay; type: functional, Homo sapiens; conditions: time 4 day
[25] = target: L-type calcium channel, benzothiazepine site (Cav1.2 alpha-1C) (Homo sapiens, UniProt Q13936); assay: Inhibition of Calcium Channel L-Type, Benzothiazepine at 10 µM in the Eurofins-Panlabs radioligand binding assay (Eurofins_assay_214510); set-up: ligand concentration 2 nM, non-specific ligand with concentration 10 µM Diltiazem, incubation time 3h, incubation temperature 4 °C; conditions: male, Wistar, rat, rat whole brain preparation, probe [3H] Diltiazem; compound concentration 10 uM; target entry is the homologue from another species
[26] = target: Serine/threonine-protein kinase ULK2 (Homo sapiens) (UniProt Q8IYT8); assay: ULK2 DiscoveRx kinase panel; conditions: Compound concentration 1.0 uM
[27] = target: Dual specificity mitogen-activated protein kinase kinase 1 (Homo sapiens) (UniProt Q02750); assay: MEK1 DiscoveRx kinase panel; conditions: Compound concentration 1.0 uM
[28] = target: Activin receptor type-2A (Homo sapiens) (UniProt P27037); assay: ACVR2A DiscoveRx kinase panel; conditions: Compound concentration 1.0 uM
[29] = PHKG2 DiscoveRx kinase panel; conditions: Homo sapiens; Compound concentration 1.0 uM
[30] = target: Serine/threonine-protein kinase Chk2 (Homo sapiens) (UniProt O96017); assay: CHEK2 DiscoveRx kinase panel; conditions: Compound concentration 1.0 uM
Rattus norvegicus = species on record: Rattus norvegicus; assay: GABAA, Ro-15-1788, Hippocampus Eurofins-Panlabs radioligand binding assay; set-up: ligand concentration 1 nM; conditions: Compound concentration 10.0 uM
[31] = target: D(4) dopamine receptor (Homo sapiens) (UniProt P21917); conditions: Compound concentration 10.0 uM
[32] = target: 5-hydroxytryptamine receptor 3A (Homo sapiens) (UniProt P46098); conditions: Compound concentration 10.0 uM
[33] = target: 3-phosphoinositide-dependent protein kinase 1 (Homo sapiens) (UniProt O15530); assay: PDPK1 DiscoveRx kinase panel; conditions: Compound concentration 1.0 uM
[34] = target: Gamma-aminobutyric acid type B receptor subunit 1 (Homo sapiens) (UniProt Q9UBS5); assay: Inhibition of GABAB1A at compound concentration of 10.0 uM in the Eurofins-Panlabs radioligand binding assay (Eurofins_assay_228610); set-up: ligand concentration 4 nM; conditions: Compound concentration 10.0 uM
[35] = target: Serine/threonine-protein kinase MAK (Homo sapiens) (UniProt P20794); assay: MAK DiscoveRx kinase panel; conditions: Compound concentration 1.0 uM
[36] = target: Serine/threonine-protein kinase Nek1 (Homo sapiens) (UniProt Q96PY6); assay: NEK1 DiscoveRx kinase panel; conditions: Compound concentration 1.0 uM
[37] = target: Serine/threonine-protein kinase 24 (Homo sapiens) (UniProt Q9Y6E0); assay: MST3 DiscoveRx kinase panel; conditions: Compound concentration 1.0 uM
[38] = target: Ephrin type-A receptor 7 (Homo sapiens) (UniProt Q15375); assay: EPHA7 DiscoveRx kinase panel; conditions: Compound concentration 1.0 uM
[39] = target: SNF-related serine/threonine-protein kinase (Homo sapiens) (UniProt Q9NRH2); assay: SNRK DiscoveRx kinase panel; conditions: Compound concentration 1.0 uM
[40] = target: Mitogen-activated protein kinase kinase kinase 2 (Homo sapiens) (UniProt Q9Y2U5); assay: MAP3K2 DiscoveRx kinase panel; conditions: Compound concentration 1.0 uM
[41] = target: MAP kinase-activated protein kinase 2 (Homo sapiens) (UniProt P49137); assay: MAPKAPK2 DiscoveRx kinase panel; conditions: Compound concentration 1.0 uM
[42] = target: Serine/threonine-protein kinase SIK1 (Homo sapiens) (UniProt P57059); assay: SIK DiscoveRx kinase panel; conditions: Compound concentration 1.0 uM
[43] = target: Cyclin-dependent kinase 11B (Homo sapiens) (UniProt P21127); assay: CDC2L1 DiscoveRx kinase panel; conditions: Compound concentration 1.0 uM
[44] = target: Serine/threonine-protein kinase Nek11 (Homo sapiens) (UniProt Q8NG66); assay: NEK11 DiscoveRx kinase panel; conditions: Compound concentration 1.0 uM
[45] = target: Receptor tyrosine-protein kinase erbB-4 (Homo sapiens) (UniProt Q15303); assay: ERBB4 DiscoveRx kinase panel; conditions: Compound concentration 1.0 uM
[46] = target: Calcium/calmodulin-dependent protein kinase type II subunit delta (Homo sapiens) (UniProt Q13557); assay: CAMK2D DiscoveRx kinase panel; conditions: Compound concentration 1.0 uM

Chain of 3-phosphoinositide-dependent protein kinase 1 (Homo sapiens) (O15530 whole entry): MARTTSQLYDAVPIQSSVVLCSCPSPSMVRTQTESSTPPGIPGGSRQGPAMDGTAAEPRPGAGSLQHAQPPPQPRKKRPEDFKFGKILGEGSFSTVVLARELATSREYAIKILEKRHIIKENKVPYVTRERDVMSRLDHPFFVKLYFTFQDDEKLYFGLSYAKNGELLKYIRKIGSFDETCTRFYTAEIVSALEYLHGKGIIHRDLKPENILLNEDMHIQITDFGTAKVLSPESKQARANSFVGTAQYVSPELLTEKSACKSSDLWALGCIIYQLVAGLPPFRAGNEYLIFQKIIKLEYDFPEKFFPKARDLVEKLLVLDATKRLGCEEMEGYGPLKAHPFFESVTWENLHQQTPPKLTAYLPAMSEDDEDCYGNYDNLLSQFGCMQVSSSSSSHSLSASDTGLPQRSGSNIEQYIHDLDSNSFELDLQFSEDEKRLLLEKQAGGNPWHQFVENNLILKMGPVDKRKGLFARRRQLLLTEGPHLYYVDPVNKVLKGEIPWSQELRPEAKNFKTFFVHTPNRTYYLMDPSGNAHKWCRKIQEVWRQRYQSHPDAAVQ
Chain of MAP kinase-activated protein kinase 2 (Homo sapiens) (P49137 whole entry, looked up): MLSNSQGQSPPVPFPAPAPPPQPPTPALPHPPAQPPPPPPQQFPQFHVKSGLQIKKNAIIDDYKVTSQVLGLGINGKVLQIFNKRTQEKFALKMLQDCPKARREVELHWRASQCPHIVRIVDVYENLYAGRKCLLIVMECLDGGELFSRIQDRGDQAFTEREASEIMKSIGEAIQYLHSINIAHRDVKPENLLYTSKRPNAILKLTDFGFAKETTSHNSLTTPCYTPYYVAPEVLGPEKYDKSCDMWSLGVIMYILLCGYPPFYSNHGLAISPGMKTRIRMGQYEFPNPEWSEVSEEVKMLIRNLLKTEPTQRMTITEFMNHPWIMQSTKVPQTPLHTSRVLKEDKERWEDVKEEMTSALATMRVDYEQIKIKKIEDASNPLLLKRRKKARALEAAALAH
Chain of SNF-related serine/threonine-protein kinase (Homo sapiens) (Q9NRH2 whole entry): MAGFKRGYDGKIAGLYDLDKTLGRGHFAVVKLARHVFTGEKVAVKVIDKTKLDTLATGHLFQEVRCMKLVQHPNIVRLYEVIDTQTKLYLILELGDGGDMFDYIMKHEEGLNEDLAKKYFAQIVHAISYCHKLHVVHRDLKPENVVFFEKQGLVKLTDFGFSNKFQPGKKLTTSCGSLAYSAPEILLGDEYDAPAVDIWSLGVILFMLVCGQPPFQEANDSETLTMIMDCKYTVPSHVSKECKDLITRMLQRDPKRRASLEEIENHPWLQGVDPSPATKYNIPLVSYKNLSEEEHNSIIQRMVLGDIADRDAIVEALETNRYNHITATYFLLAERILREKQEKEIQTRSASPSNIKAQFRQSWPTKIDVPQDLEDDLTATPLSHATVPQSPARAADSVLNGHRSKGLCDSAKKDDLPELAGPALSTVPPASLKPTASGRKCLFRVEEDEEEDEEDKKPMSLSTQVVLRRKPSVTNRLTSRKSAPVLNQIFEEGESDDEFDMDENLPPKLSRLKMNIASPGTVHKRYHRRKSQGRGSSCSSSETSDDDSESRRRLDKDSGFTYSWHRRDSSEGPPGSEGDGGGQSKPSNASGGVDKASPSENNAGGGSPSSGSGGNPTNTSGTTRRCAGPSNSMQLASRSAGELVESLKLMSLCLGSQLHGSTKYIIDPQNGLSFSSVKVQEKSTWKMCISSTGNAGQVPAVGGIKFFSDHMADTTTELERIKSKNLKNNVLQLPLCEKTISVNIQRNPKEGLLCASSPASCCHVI
Chain of Mitogen-activated protein kinase kinase kinase 2 (Homo sapiens) (Q9Y2U5 whole entry): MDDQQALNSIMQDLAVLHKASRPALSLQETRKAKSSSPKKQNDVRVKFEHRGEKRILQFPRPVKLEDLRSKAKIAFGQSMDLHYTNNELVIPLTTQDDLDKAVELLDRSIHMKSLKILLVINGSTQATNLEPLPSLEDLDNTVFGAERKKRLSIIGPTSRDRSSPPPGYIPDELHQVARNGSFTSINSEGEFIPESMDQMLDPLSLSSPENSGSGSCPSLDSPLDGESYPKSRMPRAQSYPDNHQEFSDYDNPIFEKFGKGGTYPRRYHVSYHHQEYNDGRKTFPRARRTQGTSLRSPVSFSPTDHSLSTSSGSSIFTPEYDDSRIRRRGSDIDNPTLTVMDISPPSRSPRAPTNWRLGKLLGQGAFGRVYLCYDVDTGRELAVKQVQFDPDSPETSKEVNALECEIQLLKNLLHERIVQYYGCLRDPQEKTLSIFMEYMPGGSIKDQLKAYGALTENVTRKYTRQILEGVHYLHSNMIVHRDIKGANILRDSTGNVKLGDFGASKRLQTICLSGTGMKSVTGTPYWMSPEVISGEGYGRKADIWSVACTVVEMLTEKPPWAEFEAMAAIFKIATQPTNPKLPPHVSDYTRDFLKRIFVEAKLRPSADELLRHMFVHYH
Chain of Ephrin type-B receptor 3 (Homo sapiens) (P54753 whole entry): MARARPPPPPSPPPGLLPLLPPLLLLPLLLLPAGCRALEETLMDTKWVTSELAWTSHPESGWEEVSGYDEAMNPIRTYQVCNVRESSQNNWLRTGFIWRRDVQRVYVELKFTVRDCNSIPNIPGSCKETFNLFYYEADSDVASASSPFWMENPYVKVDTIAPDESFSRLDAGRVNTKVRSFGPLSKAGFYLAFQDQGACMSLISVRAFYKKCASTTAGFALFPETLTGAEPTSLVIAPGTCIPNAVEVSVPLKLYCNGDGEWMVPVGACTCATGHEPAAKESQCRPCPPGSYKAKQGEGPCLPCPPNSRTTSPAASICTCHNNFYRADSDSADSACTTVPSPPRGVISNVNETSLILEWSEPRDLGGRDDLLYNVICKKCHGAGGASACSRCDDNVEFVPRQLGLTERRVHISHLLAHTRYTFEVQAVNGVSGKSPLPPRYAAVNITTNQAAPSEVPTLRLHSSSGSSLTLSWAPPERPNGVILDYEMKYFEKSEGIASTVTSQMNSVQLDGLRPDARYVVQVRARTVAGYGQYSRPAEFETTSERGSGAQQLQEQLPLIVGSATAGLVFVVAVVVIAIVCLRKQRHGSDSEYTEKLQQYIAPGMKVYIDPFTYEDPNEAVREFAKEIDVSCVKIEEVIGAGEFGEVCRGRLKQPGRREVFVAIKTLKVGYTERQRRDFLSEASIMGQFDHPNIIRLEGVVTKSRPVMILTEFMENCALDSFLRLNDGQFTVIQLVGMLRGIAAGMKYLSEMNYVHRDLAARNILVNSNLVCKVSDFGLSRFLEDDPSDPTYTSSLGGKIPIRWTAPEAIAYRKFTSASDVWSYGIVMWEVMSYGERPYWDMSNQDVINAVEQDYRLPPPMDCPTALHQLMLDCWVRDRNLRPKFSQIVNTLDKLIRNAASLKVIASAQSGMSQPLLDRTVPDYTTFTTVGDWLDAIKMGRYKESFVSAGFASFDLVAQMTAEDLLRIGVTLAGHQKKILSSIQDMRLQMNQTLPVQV
Chain of RAF proto-oncogene serine/threonine-protein kinase (Homo sapiens) (P04049 whole entry): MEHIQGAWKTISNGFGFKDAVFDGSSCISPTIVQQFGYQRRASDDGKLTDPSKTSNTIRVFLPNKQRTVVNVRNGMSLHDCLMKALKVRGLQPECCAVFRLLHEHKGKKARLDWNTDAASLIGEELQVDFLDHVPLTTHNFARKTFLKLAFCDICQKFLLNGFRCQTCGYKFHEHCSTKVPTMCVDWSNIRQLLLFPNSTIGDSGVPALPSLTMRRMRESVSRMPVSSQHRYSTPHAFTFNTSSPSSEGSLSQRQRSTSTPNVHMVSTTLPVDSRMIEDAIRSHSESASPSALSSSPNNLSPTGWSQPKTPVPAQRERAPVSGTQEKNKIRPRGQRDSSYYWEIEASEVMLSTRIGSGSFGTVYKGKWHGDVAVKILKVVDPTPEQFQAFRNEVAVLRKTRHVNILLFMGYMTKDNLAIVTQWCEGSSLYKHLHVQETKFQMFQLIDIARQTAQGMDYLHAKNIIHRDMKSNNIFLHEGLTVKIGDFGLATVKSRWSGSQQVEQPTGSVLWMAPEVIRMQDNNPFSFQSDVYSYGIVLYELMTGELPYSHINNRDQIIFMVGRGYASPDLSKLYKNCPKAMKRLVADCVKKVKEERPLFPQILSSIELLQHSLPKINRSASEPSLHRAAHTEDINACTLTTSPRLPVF
Chain of Serine/threonine-protein kinase Chk2 (Homo sapiens) (O96017 whole entry): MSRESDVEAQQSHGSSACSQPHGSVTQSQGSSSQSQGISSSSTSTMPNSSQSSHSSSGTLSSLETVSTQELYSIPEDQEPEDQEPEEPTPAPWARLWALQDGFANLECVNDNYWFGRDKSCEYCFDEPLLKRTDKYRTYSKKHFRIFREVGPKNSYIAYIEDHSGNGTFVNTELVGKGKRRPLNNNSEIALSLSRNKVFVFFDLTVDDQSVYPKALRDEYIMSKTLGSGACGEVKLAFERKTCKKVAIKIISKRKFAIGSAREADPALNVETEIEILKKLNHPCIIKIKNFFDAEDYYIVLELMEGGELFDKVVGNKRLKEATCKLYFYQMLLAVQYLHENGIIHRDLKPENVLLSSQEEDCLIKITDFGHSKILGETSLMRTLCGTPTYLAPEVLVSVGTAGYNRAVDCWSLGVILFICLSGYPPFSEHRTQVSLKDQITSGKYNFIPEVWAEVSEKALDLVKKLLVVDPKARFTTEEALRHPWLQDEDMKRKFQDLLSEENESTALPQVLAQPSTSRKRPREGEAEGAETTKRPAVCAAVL
Chain of D(2) dopamine receptor (Homo sapiens) (P14416 whole entry): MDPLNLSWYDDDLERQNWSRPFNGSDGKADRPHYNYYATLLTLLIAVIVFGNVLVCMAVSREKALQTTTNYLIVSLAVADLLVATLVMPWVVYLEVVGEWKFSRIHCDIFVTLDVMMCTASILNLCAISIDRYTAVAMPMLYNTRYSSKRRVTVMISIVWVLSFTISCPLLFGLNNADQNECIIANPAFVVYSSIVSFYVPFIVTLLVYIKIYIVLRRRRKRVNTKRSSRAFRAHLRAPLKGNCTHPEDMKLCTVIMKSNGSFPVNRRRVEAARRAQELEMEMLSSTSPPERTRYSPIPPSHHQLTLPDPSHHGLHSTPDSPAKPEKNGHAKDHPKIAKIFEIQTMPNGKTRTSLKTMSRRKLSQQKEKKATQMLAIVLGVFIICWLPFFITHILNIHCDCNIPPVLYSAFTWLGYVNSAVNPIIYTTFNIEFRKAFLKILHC

## COc1cnccc1Nc1nc(-c2nn(Cc3c(F)cc(OCCO)cc3F)c3ccccc23)ncc1OC
[1]
  residual activity: 100%
[2]
  residual activity: 98%
[3]
  residual activity: 74%
[4]
  inhibition: -6%
[5]
  residual activity: 91%
[6]
  residual activity: 100%
[7]
  residual activity: 93%
[8]
  residual activity: 82%
HeLa
  Cell Proliferation IC50: 1.6 µM
[9]
  inhibition: -5%
[10]
  inhibition: 17%
[11]
  inhibition: 13%
[12]
  residual activity: 95%
[13]
  residual activity: 100%
[14]
  residual activity: 100%
[15]
  residual activity: 90%
[16]
  residual activity: 71%
[17]
  residual activity: 95%
[18]
  residual activity: 100%
[19]
  residual activity: 55%
[20]
  residual activity: 100%
[21]
  residual activity: 72%
[22]
  residual activity: 100%
[23]
  inhibition: -9%
[24]
  inhibition: -6.97%
HT1197
  Cell Proliferation IC50: 4.9 µM
[25]
  inhibition at 3 h, 10 µM: -10% (not active)
[26]
  residual activity: 100%
[27]
  residual activity: 97%
[28]
  residual activity: 100%
[29]
  residual activity: 98%
[30]
  residual activity: 100%
Rattus norvegicus
  inhibition: 22%
[31]
  inhibition: 1.38%
[32]
  inhibition: -8.58%
[33]
  residual activity: 100%
[34]
  inhibition: -2%
[35]
  residual activity: 73%
[36]
  residual activity: 78%
[37]
  residual activity: 100%
[38]
  residual activity: 98%
[39]
  residual activity: 96%
[40]
  residual activity: 97%
[41]
  residual activity: 92%
[42]
  residual activity: 84%
[43]
  residual activity: 91%
[44]
  residual activity: 96%
[45]
  residual activity: 100%
[46]
  residual activity: 100%
